# Patent US20180291335A1, “MODIFIED POLYNUCLEOTIDES FOR ALTERING CELL PHENOTYPE” (ModernaTX, Inc., priority 2012, published 2018)
# Assays:
# [1] = tested on: HeLa cells; experiment: In vitro screening in HeLa cells, luciferase modified RNA; type: cell-based, human; conditions: HeLa cells, 83 ng luciferase modified RNA, 18 to 22 hours
# Experimental: (§1) The day before transfection, 20,000 HeLa cells (ATCC no. CCL-2; Manassas, Va.) were harvested by treatment with Trypsin-EDTA solution (LifeTechnologies, Grand Island, N.Y.) and seeded in a total volume of 100 ul EMEM medium (supplemented with 10% FCS and 1× Glutamax) per well in a 96-well cell culture plate (Corning, Manassas, Va.). The cells were grown at […] in 5% CO2 atmosphere overnight. […] Lipofectamine 2000 (LifeTechnologies, Grand Island, N.Y.) was used as transfection reagent and 0.2 ul were diluted in 10 ul final volume of OPTI-MEM. After 5 minutes of incubation at room temperature, both solutions were combined and incubated an additional 15 minute at room temperature. Then the 20 ul combined solution was added to the 100 ul cell culture medium containing the HeLa cells and incubated at room temperature.
# (§2) After 18 to 22 hours of incubation cells expressing luciferase were lysed with 100 ul of Passive Lysis Buffer (Promega, Madison, Wis.) according to manufacturer instructions. Aliquots of the lysates were transferred to white opaque polystyrene 96-well plates (Corning, Manassas, Va.) and combined with 100 ul complete luciferase assay solution (Promega, Madison, Wis.). The lysate volumes were adjusted or diluted until no more than 2 mio relative light units (RLU) per well were detected for the strongest signal producing samples and the RLUs for each chemistry tested are shown in Table 19. The plate reader was a BioTek Synergy H1 (BioTek, Winooski, Vt.). The background signal of the plates without reagent was about 200 relative light units per well.
# [2] = tested on: Rabbit Reticulocyte Lysate; experiment: In vitro screening in rabbit reticulocyte lysates, luciferase mRNA translation; type: biochemical; conditions: 250 ng luciferase mRNA, 60 minutes, 30° C.
# Experimental: The diluted luciferase was added to 40 ul of freshly prepared Rabbit Reticulocyte Lysate and the in vitro translation reaction was done in a standard 1.5 mL polypropylene reaction tube (Thermo Fisher Scientific, Waltham, Mass.) at 30° C. in a dry heating block. The translation assay was done with the Rabbit Reticulocyte Lysate (nuclease-treated) kit (Promega, Madison, Wis.) according to the manufacturer's instructions. The reaction buffer was supplemented with a one-to-one blend of provided amino acid stock solutions devoid of either Leucine or Methionine resulting in a reaction mix containing sufficient amounts of both amino acids to allow effective in vitro translation.
# After 60 minutes of incubation, the reaction was stopped by placing the reaction tubes on ice. Aliquots of the in vitro translation reaction containing luciferase modified RNA were transferred to white opaque polystyrene 96-well plates (Corning, Manassas, Va.) and combined with 100 ul complete luciferase assay solution (Promega, Madison, Wis.). The volumes of the in vitro translation reactions were adjusted or diluted until no more than 2 mio relative light units (RLUs) per well were detected for the strongest signal producing samples and the RLUs for each chemistry tested are shown in Table 20. The plate reader was a BioTek Synergy H1 (BioTek, Winooski, Vt.). The background signal of the plates without reagent was about 200 relative light units per well.
# [3] = tested on: HeLa cells; experiment: Luciferase in HeLa cells using a combination of modifications; type: cell-based, human; conditions: 83 ng luciferase modified RNA, 18 to 22 hours, listed as 5-methylcytidine/pseudouridine
# Experimental: To evaluate using of 2′fluoro-modified mRNA in combination with other modification a series of mRNA were transcribed using either wild-type T7 polymerase (non-fluoro-containing compounds) or using mutant T7 polymerases (fluyoro-containing compounds) as described in Example 86. All modified mRNA were tested by in vitro transfection in HeLa cells.
# as §1
# as §2, with “26.” for “19.”
# [4] = tested on: interferon-alpha (IFN-alpha); experiment: 2′Fluoro chemistries in PBMC: IFN-alpha production by ELISA; type: cell-based, human; conditions: G-CSF modified mRNA
# [5] = tested on: tumor necrosis factor-alpha (TNF-alpha); experiment: 2′Fluoro chemistries in PBMC: TNF-alpha production by ELISA; type: cell-based, human; conditions: G-CSF modified mRNA
# [6] = tested on: HeLa cells; experiment: G-CSF modified mRNA transfected in HeLa cells, G-CSF ELISA; type: cell-based, human; conditions: HeLa cells, combination chemistries, ELISA
# Experimental: To assess the activity of all our different chemical modifications in the context of a second open reading frame, we replicated experiments previously conducted using luciferase mRNA, with human G-CSF mRNA. […] The mutant T7 polymerase was obtained commercially (Durascribe® T7 Transcription kit (Cat. No. DS010925) (Epicentre®, Madison, Wis.).
# The modified RNA in Tables 27 and 28 were transfected in vitro in HeLa cells or added to rabbit reticulysates (250 ng of modified mRNA) as indicated. […] In Table 27, “NT” means not tested.
molecule,measurement,setting,value
"5-methylcytosine/pseudouridine, test A1: Luciferase mRNA (SEQ ID NO: 409) modified with 5-methylcytosine and pseudouridine; repeated tests",RLU,[1],"48,659 RLU"
same,RLU,[1]; test A2,"295,824 RLU"
same,RLU,[1]; test A3,"438,831 RLU"
same,RLU,[1]; test B1,"317,744 RLU"
same,RLU,[1]; test B2,"481,477 RLU"
same,RLU,[2],"349,398 RLU"
same,RLU,[2]; test A2,"558,779 RLU"
same,RLU,[2]; test A3,"413,535 RLU"
same,RLU,[2]; test B1,"454,662 RLU"
same,RLU,[2]; test B2,"487,805 RLU"
same,RLU,[3]; test A,"13,833 RLU"
same,RLU,[3]; test B,"115,401 RLU"
"CCOCc1nc2c(N)nc3ccccc3c2n1CC(C)(C)O [Compound R-848, reference compound]",IFN-alpha: 3 Donor Average,[4],45 pg/mL
same,TNF-alpha: 2 Donor Average,[5],"8,235 pg/ml"
"5-methylcytidine/5-bromouridine: G-CSF mRNA (SEQ ID NO: 408) fully modified with the named combination (nucleic acid, 5-methylcytidine/5-bromouridine modified; Description of Artificial Sequence: Synthetic Transcript Sequence) GGGAAAUAAGAGAGAAAAGAAGAGUAAGAAGAAAUAUAAGAGCCACCAUGGCCGGUCCCGCGACCCAAAGCCCCAUGAAACUUAUGGCCCUGCAGUUGCUGCUUUGGCACUCGGCCCUCUGGACAGUCCAAGAAGCGACUCCUCUCGGACCUGCCUCAUCGUUGCCGCAGUCAUUCCUUUUGAAGUGUCUGGAGCAGGUGCGAAAGAUUCAGGGCGAUGGAGCCGCACUCCAAGAGAAGCUCUGCGCGACAUACAAACUUUGCCAUCCCGAGGAGCUCGUACUGCUCGGGCACAGCUUGGGGAUUCCCUGGGCUCCUCUCUCGUCCUGUCCGUCGCAGGCUUUGCAGUUGGCAGGGUGCCUUUCCCAGCUCCACUCCGGUUUGUUCUUGUAUCAGGGACUGCUGCAAGCCCUUGAGGGAAUCUCGCCAGAAUUGGGCCCGACGCUGGACACGUUGCAGCUCGACGUGGCGGAUUUCGCAACAACCAUCUGGCAGCAGAUGGAGGAACUGGGGAUGGCACCCGCGCUGCAGCCCACGCAGGGGGCAAUGCCGGCCUUUGCGUCCGCGUUUCAGCGCAGGGCGGGUGGAGUCCUCGUAGCGAGCCACCUUCAAUCAUUUUUGGAAGUCUCGUACCGGGUGCUGAGACAUCUUGCGCAGCCGUGAAGCGCUGCCUUCUGCGGGGCUUGCCUUCUGGCCAUGCCCUUCUUCUCUCCCUUGCACCUGUACCUCUUGGUCUUUGAAUAAAGCCUGAGUAGGAAG",G-CSF protein (pg/ml) HeLa cells,[6],"48,864 pg/ml"
same,IFN-alpha: 3 Donor Average,[4],0 pg/mL
same,TNF-alpha: 2 Donor Average,[5],270 pg/mL
"N4-acetylcytidine/2-thiouridine: G-CSF mRNA (SEQ ID NO: 408) fully modified with the named combination (nucleic acid, N4-acetylcytidine/2-thiouridine modified; Description of Artificial Sequence: Synthetic Transcript Sequence) GGGAAAUAAGAGAGAAAAGAAGAGUAAGAAGAAAUAUAAGAGCCACCAUGGCCGGUCCCGCGACCCAAAGCCCCAUGAAACUUAUGGCCCUGCAGUUGCUGCUUUGGCACUCGGCCCUCUGGACAGUCCAAGAAGCGACUCCUCUCGGACCUGCCUCAUCGUUGCCGCAGUCAUUCCUUUUGAAGUGUCUGGAGCAGGUGCGAAAGAUUCAGGGCGAUGGAGCCGCACUCCAAGAGAAGCUCUGCGCGACAUACAAACUUUGCCAUCCCGAGGAGCUCGUACUGCUCGGGCACAGCUUGGGGAUUCCCUGGGCUCCUCUCUCGUCCUGUCCGUCGCAGGCUUUGCAGUUGGCAGGGUGCCUUUCCCAGCUCCACUCCGGUUUGUUCUUGUAUCAGGGACUGCUGCAAGCCCUUGAGGGAAUCUCGCCAGAAUUGGGCCCGACGCUGGACACGUUGCAGCUCGACGUGGCGGAUUUCGCAACAACCAUCUGGCAGCAGAUGGAGGAACUGGGGAUGGCACCCGCGCUGCAGCCCACGCAGGGGGCAAUGCCGGCCUUUGCGUCCGCGUUUCAGCGCAGGGCGGGUGGAGUCCUCGUAGCGAGCCACCUUCAAUCAUUUUUGGAAGUCUCGUACCGGGUGCUGAGACAUCUUGCGCAGCCGUGAAGCGCUGCCUUCUGCGGGGCUUGCCUUCUGGCCAUGCCCUUCUUCUCUCCCUUGCACCUGUACCUCUUGGUCUUUGAAUAAAGCCUGAGUAGGAAG",G-CSF protein (pg/ml) HeLa cells,[6],"46,136 pg/ml"
same,IFN-alpha: 3 Donor Average,[4],0 pg/mL
same,TNF-alpha: 2 Donor Average,[5],285 pg/mL
"N4-acetylcytidine/5-bromouridine: G-CSF mRNA (SEQ ID NO: 408) fully modified with the named combination (nucleic acid, N4-acetylcytidine/5-bromouridine modified; Description of Artificial Sequence: Synthetic Transcript Sequence) GGGAAAUAAGAGAGAAAAGAAGAGUAAGAAGAAAUAUAAGAGCCACCAUGGCCGGUCCCGCGACCCAAAGCCCCAUGAAACUUAUGGCCCUGCAGUUGCUGCUUUGGCACUCGGCCCUCUGGACAGUCCAAGAAGCGACUCCUCUCGGACCUGCCUCAUCGUUGCCGCAGUCAUUCCUUUUGAAGUGUCUGGAGCAGGUGCGAAAGAUUCAGGGCGAUGGAGCCGCACUCCAAGAGAAGCUCUGCGCGACAUACAAACUUUGCCAUCCCGAGGAGCUCGUACUGCUCGGGCACAGCUUGGGGAUUCCCUGGGCUCCUCUCUCGUCCUGUCCGUCGCAGGCUUUGCAGUUGGCAGGGUGCCUUUCCCAGCUCCACUCCGGUUUGUUCUUGUAUCAGGGACUGCUGCAAGCCCUUGAGGGAAUCUCGCCAGAAUUGGGCCCGACGCUGGACACGUUGCAGCUCGACGUGGCGGAUUUCGCAACAACCAUCUGGCAGCAGAUGGAGGAACUGGGGAUGGCACCCGCGCUGCAGCCCACGCAGGGGGCAAUGCCGGCCUUUGCGUCCGCGUUUCAGCGCAGGGCGGGUGGAGUCCUCGUAGCGAGCCACCUUCAAUCAUUUUUGGAAGUCUCGUACCGGGUGCUGAGACAUCUUGCGCAGCCGUGAAGCGCUGCCUUCUGCGGGGCUUGCCUUCUGGCCAUGCCCUUCUUCUCUCCCUUGCACCUGUACCUCUUGGUCUUUGAAUAAAGCCUGAGUAGGAAG",G-CSF protein (pg/ml) HeLa cells,[6],"211,591 pg/ml"
same,IFN-alpha: 3 Donor Average,[4],44 pg/mL
same,TNF-alpha: 2 Donor Average,[5],403 pg/mL
